Source: the NIST ThermoML archive (doi:10.1021/je700373r)

Legend:
[1] = Fluid (supercritical or subcritical phases), Vibrating tube method
[2] = xn = mol fraction of the nth substance listed; settings: Fluid (supercritical or subcritical phases), Vibrating tube method, x2 = 0

O=C=O [carbon dioxide]
mass density [kg/m3], [1]
Settings | 10000 kPa | 15000 kPa | 20000 kPa | 30000 kPa | 40000 kPa
308.15 K | 717.2 | 816.1 | 866.1 | 929 | 971.7
313.15 K | 636.6 | 781.3 | 840.2 | 909.7 | 955.5
323.15 K | 397.3 | 701.8 | 784.9 | 870.3 | 922.8
333.15 K | 296.1 | 607 | 724.4 | 829.6 | 889.8

O=C=O [carbon dioxide] + CC1=C(/C=C/C(C)=C/C=C/C(C)=C/C=C/C=C(C)/C=C/C=C(C)/C=C/C2=C(C)CCCC2(C)C)C(C)(C)CCC1
mass density [kg/m3], [2]
Settings | 10000 kPa | 15000 kPa | 20000 kPa | 30000 kPa | 40000 kPa
308.15 K | 717.2 | 816.1 | 866.1 | 929 | 971.7
313.15 K | 636.6 | 781.3 | 840.2 | 909.7 | 955.5
323.15 K | 397.3 | 701.8 | 784.9 | 870.3 | 922.8
333.15 K | 296.1 | 607 | 724.4 | 829.6 | 889.8
